Laboratory results reported in the NIST ThermoML archive (doi:10.1021/je700599z).
Numbers after ± are expanded uncertainties.

Settings: DTA

Glass transition temperature: -62.0 ± 3 °C
Structure (SMILES): CCn1cc[n+](C)c1.NCC(=O)[O-] [1-ethyl-3-methylimidazolium ammonioacetate]
